Laboratory results as given in patent US20260315611A1, “LINKER COMPOUNDS AND LIGAND-DRUG CONJUGATES, PREPARATION METHODS AND USES THEREOF” (Biocytogen Pharmaceuticals (Beijing) Co., Ltd., priority 2023, published 2026).

Experiments:
PC12 = assay: in vitro killing activity; format: cell-based, Rat; details: Rattus norvegicus, PC-12; 120 time of incubation
Method: (§1) Different concentrations of compounds CPT-1, CPT-2, CPT-3, CPT-4, Dxd (MedChem Express, Cat #: HY-13631D) and SN38 (MedChem Express, Cat #: HY-13704) were used to treat different human tumor cell lines, mice tumor cell lines, rat tumor cell lines or dog tumor cell lines cultured in a cell culture plate, respectively. And the killing activity was detected after 72 h-120 h incubation by IncuCyte (Sartorius AG, IncuCyte® S3) or MicroplateReader.

L6 = assay: in vitro killing activity; format: cell-based, Rat; details: Rattus norvegicus, L6; 120 h incubation
Method: as §1

DCOL1 (S+L−) = assay: in vitro killing activity; format: cell-based, Dog; details: Canis lupus familiaris; 120 time of incubation
Method: as §1

D17 = assay: in vitro killing activity; format: cell-based, Dog; details: Canis lupus familiaris, D17; 120 time of incubation
Method: as §1

MP-1092-1 = assay: in vitro killing activity; format: cell-based, Dog; details: Canis lupus familiaris; 120 time of incubation
Method: as §1

MP-1044-1 = assay: in vitro killing activity; format: cell-based, Dog; details: Canis lupus familiaris; 72 time of incubation
Method: as §1

CMT-U27 = assay: in vitro killing activity; format: cell-based, Dog; details: Canis lupus familiaris; 120 time of incubation
Method: as §1

MP-0094-3 = assay: in vitro killing activity; format: cell-based, Dog; details: Canis lupus familiaris; 120 time of incubation
Method: as §1

MP-0094-2 = assay: in vitro killing activity; format: cell-based, Dog; details: Canis lupus familiaris; 120 time of incubation
Method: as §1

HuH-7 = assay: in vitro killing activity; format: cell-based, Human; details: Homo sapiens, Huh-7; 120 h incubation
Method: as §1

A-431 = assay: in vitro killing activity; format: cell-based, Human; details: Homo sapiens, A-431; 120 time of incubation
Method: as §1

SKOV-3 = assay: in vitro killing activity; format: cell-based, Human; details: Homo sapiens, SK-OV-3; 120 time of incubation
Method: as §1

NCI-H69 = assay: in vitro killing activity; format: cell-based, Human; details: Homo sapiens, NCI-H69; 120 time of incubation
Method: as §1

HCC1954 = assay: in vitro killing activity; format: cell-based, Human; details: Homo sapiens, HCC1954; 120 time of incubation
Method: as §1

U-2-OS = assay: in vitro killing activity; format: cell-based, Human; details: Homo sapiens, U2OS; 120 time of incubation
Method: as §1

NCI-H1781 = assay: in vitro killing activity; format: cell-based, Human; details: Homo sapiens, NCI-H1781; 120 time of incubation
Method: as §1

BxPC-3 = assay: in vitro killing activity; format: cell-based, Human; details: Homo sapiens, BXPC-3; 120 time of incubation
Method: as §1

BT474 = assay: in vitro killing activity; format: cell-based, Human; details: Homo sapiens, BT-474; 120 time of incubation
Method: as §1

SW620 = assay: in vitro killing activity; format: cell-based, Human; details: Homo sapiens, SW-620; 120 h incubation
Method: as §1

LOVO = assay: in vitro killing activity; format: cell-based, Human; details: Homo sapiens, LoVo; 120 h incubation
Method: as §1

SW156 = assay: in vitro killing activity; format: cell-based, Human; details: Homo sapiens; 120 time of incubation
Method: as §1

OVKATE = assay: in vitro killing activity; format: cell-based, Human; details: Homo sapiens; 120 time of incubation
Method: as §1

NCI-H226 = assay: in vitro killing activity; format: cell-based, Human; details: Homo sapiens, NCI-H226; 120 h incubation
Method: as §1

Panc 02.03 = assay: in vitro killing activity; format: cell-based, Human; details: Homo sapiens, Panc 02.03; 120 time of incubation
Method: as §1

NCI-H1975 = assay: in vitro killing activity; format: cell-based, Human; details: Homo sapiens, NCI-H1975; 120 time of incubation
Method: as §1

NCI-N87 = assay: in vitro killing activity; format: cell-based, Human; details: Homo sapiens, NCI-N87; 120 time of incubation
Method: as §1

Hela = assay: in vitro killing activity; format: cell-based, Human; details: Homo sapiens, HeLa; 120 h incubation
Method: as §1

NCI-H2030 = assay: in vitro killing activity; format: cell-based, Human; details: Homo sapiens, NCI-H2030; 120 time of incubation
Method: as §1

HS-746T = assay: in vitro killing activity; format: cell-based, Human; details: Homo sapiens, Hs746T; 120 time of incubation
Method: as §1

PC-3 = assay: in vitro killing activity; format: cell-based, Human; details: Homo sapiens, PC-3; 120 time of incubation
Method: as §1

multiple cell lines = assay: in vitro killing activity, multiple tumor cell lines; format: cell-based, human, mice, rat, dog
Method: as §1

B16F10 = assay: in vitro killing activity; format: cell-based, Mice; details: Mus musculus, B16-F10; 75 time of incubation
Method: as §1

MC38 = assay: in vitro killing activity; format: cell-based, Mice; details: Mus musculus, MC-38; 120 time of incubation
Method: as §1

CT26 = assay: in vitro killing activity; format: cell-based, Mice; details: Mus musculus, CT26; 96 time of incubation
Method: as §1

Row | SMILES | IC50 (PC12) [nM] | IC50 (L6) [nM] | IC50 (DCOL1 (S+L−)) [nM] | IC50 (D17) [nM] | IC50 (MP-1092-1) [nM] | IC50 (MP-1044-1) [nM] | IC50 (CMT-U27) [nM] | IC50 (MP-0094-3) [nM] | IC50 (MP-0094-2) [nM] | IC50 (HuH-7) [nM] | IC50 (A-431) [nM] | IC50 (SKOV-3) [nM] | IC50 (NCI-H69) [nM] | IC50 (HCC1954) [nM] | IC50 (U-2-OS) [nM] | IC50 (NCI-H1781) [nM] | IC50 (BxPC-3) [nM] | IC50 (BT474) [nM] | IC50 (SW620) [nM] | IC50 (LOVO) [nM] | also measured
1 | CC[C@@]1(O)C(=O)OCc2c1cc1n(c2=O)Cc2c-1nc1ccc(N)c3c1c2CCS3 [CPT-1] | 1.67 | 3.69 | 1.33 | 0.841 | 0.988 | 8.63 | 0.937 | 3.92 | 2.69 | 0.742 | 2.97 | 1.8 | 0.299 | 1.31 | 2.65 | 0.297 | 0.213 | 6.22 | 0.75 | 1.52 | IC50 (SW156): 0.373 nM; IC50 (OVKATE): 2.24 nM; IC50 (NCI-H226): 2.37 nM; IC50 (Panc 02.03): 0.266 nM; IC50 (NCI-H1975): 1.71 nM; IC50 (NCI-N87): 1.2 nM; IC50 (Hela): 1.03 nM; IC50 (NCI-H2030): 1.1 nM; IC50 (HS-746T): 0.523 nM; IC50 (PC-3): 0.859 nM; in vitro killing activity (multiple cell lines): good in vitro killing activity; tumor cell inhibition effect compared with Dxd and SN38 (multiple cell lines): higher tumor cell inhibition effect than Dxd and SN38; IC50 (B16F10): 3.29 nM; IC50 (MC38): 6.72 nM; IC50 (CT26): 3.84 nM
2 | CC[C@@]1(O)C(=O)OCc2c1cc1n(c2=O)Cc2c-1nc1ccc(N)c3c1c2CCO3 [CPT-2, (S)-4-amino-9-ethyl-9-hydroxy-1,9,12,15-tetrahydro-13H-pyrano[4,3,2-de]pyrano[3′,4′:6,7]indolizino[1,2-b]quinoline-10,13(2H)-dione] | 1.77 | 3.88 | 2.29 | 1.29 | 1.75 | 8.53 | 1.28 | 7.15 | 4.69 | 0.662 | 2.84 | 1.96 | 0.318 | 1.14 | 1.41 | 0.399 | 0.289 | 11.9 | 0.824 | 1.15 | IC50 (SW156): 0.615 nM; IC50 (OVKATE): 2.04 nM; IC50 (NCI-H226): 2.77 nM; IC50 (Panc 02.03): 0.301 nM; IC50 (NCI-H1975): 1.97 nM; IC50 (NCI-N87): 1.48 nM; IC50 (Hela): 1.41 nM; IC50 (NCI-H2030): 1.31 nM; IC50 (HS-746T): 0.55 nM; IC50 (PC-3): 1.97 nM; in vitro killing activity (multiple cell lines): good in vitro killing activity; tumor cell inhibition effect compared with Dxd and SN38 (multiple cell lines): higher tumor cell inhibition effect than Dxd and SN38; IC50 (B16F10): 5.47 nM; IC50 (MC38): 9.57 nM; IC50 (CT26): 5.63 nM
